Laboratory results: patent US20150328183A1, “PHARMACEUTICAL COMPOSITION AND USE FOR APPLYING 7,7''-DIMETHOXYAGASTISFLAVONE IN INHIBITING TUMOR METASTASIS” (NATIONAL CHIAO TUNG UNIVERSITY, priority 2014, published 2015)

Legend:
[1] = system: Matrix metalloproteases-2 (MMP2) expression in B16F10 cells; assay: MMP2 RNA expression by real-time PCR; format: cell-based, mouse; settings: 1 μg/ml DMGF, 0 hour group defined as 1 times
Procedure: Culturing condition of B16F10 cells with tissue culture techniques is the same as example 2. B16F10 cell suspension was incubated in at least three plates, two of which were added biflavonoid DMGF (final concentration 1 μg/ml) and set back to 37° C. incubator and incubating for 12 and 24 hours, respectively. The culture medium and additional compound were sucked, and then the plate was washed with PBS. B16F10 cells were collected with trypsin-EDTA. And the third well was processes without DMGF, colleting B16F10 cells according to the above-mentioned method. Then total B16F10 cellular RNA was extracted with TRIzol (Invitrogen Life Technologies, Carlsbad, Calif., USA) and reverse-transcribed into cDNA using the extracted RNA template. The cDNA was further a template for real-time polymerase chain reaction (Real-time PCR). The forward primer and the reverse primer of MMP2 were [NT] and [NT], repectively, thus quantified the MMP2 expression level in the above-mentioned time period of control group and experiment group of the present example. In detail, reverse-transcription PCR was treated with SuperScript First-Strand system (Invitrogen Life Technologies). […] While the MMP2 expression level of “0 hour” group is defined as 1 times, the MMP2 expression level of “12 hours” group and “24 hours” group are both calculated according to the “0 hour” group.

B16F10 cells = assay: Anti-metastatic activity in mice bearing B16F10 tumors (tumor volume); format: in vivo; settings: C57BL/6 mice with B16F10 tumors, 10 mg/kg and 50 mg/kg DMGF injected once every 2 to 3 days
Procedure: At least 3 8-week-old C57BL/6 mice (female) were i.v. injected with 1×10^6 B16F10 cells. Mice bearing tumors with more than 30 mm^3 were injected with PBS, 10 mg/kg DMGF and 50 mg/kg DMGF once every 2 to 3 days. […] That is, with reference to the result of example 5, pharmaceutical composition with DMGF indeed inhibits tumor cell migration, thus inhibiting tumor metastasis.

Aspergillus flavus = settings: cited from earlier work
[2] = system: B16F10 mouse melanoma cells; assay: Transwell (matrigel-coated) migration assay for metastasis inhibition; format: cell-based; settings: 1 μg/ml DMGF, 4 hours, 8 μm film coated with matrigel, compared to the group without DMGF (100%)
Procedure: B16F10 mouse melanoma cells were maintained in 1% antibiotics of Dulbecco's modified Eagle's medium (DMEM; Gibco/Invitrogen, Carlsbad, Calif., USA) supplemented with heat-inactivated 10% fetal bovine serum (Gibco/Invitrogen, Carlsbad, Calif., USA). Antibiotic were preferably penicillin/streptomycin/amphotericin. Cell suspension (3×10^4) were treated with or without 1 μg/ml DMGF in the upper well of a transwell plate. The well without DMGF was used as a control group of experiment. DMEM cell culture medium was added into the upper and lower wells, and the lower well was further added fetal bovine serum, and then maintained in the incubator under 37° C. In other embodiment, B16F10 cell suspension was allowed to incubate in the 4 or 6 upper wells of transwell plate to comduct second repeat or duplicate tests, which is not for limited sense of present invention.
The bottom side of the upper well, which is between the upper well and the lower well, includes a transparent film. The present example applied 8 μm (coated with matrigel) transparent films for tumor metastasis test. […] The cells on the top of the filter were removed with a cotton swab and migrated cells on the underside were fixed with methanol, stained with 50 μg/ml propidium iodide and counted with a fluorescence microscope. […]

TNF-α = assay: LPS-induced TNF-α secretion by mouse splenocytes (ELISA); format: cell-based; settings: 1 μg/ml LPS, 1.25 μg/ml DMGF, 72 hours; group without DMGF up to 200 pg/ml
Procedure: 1×10^6 mouse splenocyte suspension was seeded in 24-well culture plate supplemented with 1 μg/ml lipopolysaccharide (LPS) for inducing the immune cells of mouse splenocyte secreting TNF-α, and 0, 0.3125, 0.625, 1.25 μg/ml DMGF to each group. The mouse splenocyte were further incubated in 37° C. incubator for 72 hours. The culture medium was collected and tested for TNF-α concentration by ELISA kit for detecting TNF-α.
With the use of increased DMGF dose level, the lower the TNF-α concentration. For example, mouse splenocyte treated with 1.25 μg/ml DMGF secreted TNF-α concentration fell to 60 pg/ml. With reference to the result of example 6, pharmaceutical composition with DMGF has the ability to inhibit immune cells secreting TNF-α to inhibit inflammation. Since inflammation is related to improving angiogenesis and invasion, migration or other pathological effects of tumor cells, pharmaceutical composition with DMGF has the ability to inhibit inflammation, thus inhibiting tumor metastasis.

[3] = system: SVEC4-10 mouse vascular endothelial cells; assay: Polymerization of fibrous actin (Phallotoxin/DAPI staining); format: cell-based; settings: SVEC4-10 cells, 16 ng/ml VEGF, 1 μg/ml DMGF, 3 to 4 hours
Procedure: Tissue culture technology for culturing SVEC4-10 mouse vascular endothelial cells can be referred to the culturing method of B16F10 in example 2, and is not repeated here. SVEC4-10 cell suspension (3×10^4) were incubated in at least two plates and treated with 16 ng/ml VEGF (Upstate Inc., Lake Placid, N.Y., USA) medium in the two 96-well plate, and one of the plate was further added with 1 μg/ml DMGF as an experiment group. After adding the culture medium and the above-mentioned compound, SVEC4-10 cells were incubated in 37° C. incubator for 3 to 4 hours and then dyed with diamidino-phenyl-indole (DAPI) and Phallotoxin, respectively. Diamidino-phenyl-indole can be combined with double-stranded DNA to label the position of nucleus. Phallotoxin capable of combining with fibrous actin is often used as the dye for observing the polymerization of fibrous actin. After dyeing, the polymerization of fibrous actin was observed under 40 magnification microscopic lens.
“A” (filaments or spot) in FIG.3 marks the structure of fibrous actin, and “B” (circle) in FIG. 3 marks the position of nucleus. […] Polymerization of fibrous actin is correlated with cell migration in which polymerization of fibrous actin happens. Cell migration is the early step of tumor metastasis.

## COc1cc2oc(-c3ccc(O)cc3)cc(=O)c2c(O)c1-c1c(OC)cc(O)c2c(=O)cc(-c3ccc(O)cc3)oc12 [DMGF, 7,7″-Dimethoxyagastisflavone]
[1]; 12 hours
  MMP2 RNA expression level relative to 0 hour group: 0.5 times
[1]; 24 hours
  MMP2 RNA expression level relative to 0 hour group: 0.3 times
B16F10 cells
  tumor volume versus PBS-treated mouse: significantly smaller
Aspergillus flavus
  inhibition of aflatoxin secretion: inhibiting Aspergillus flavus secreting aflatoxin
[2]
  reduction in the capacity of B16F10 cells to migrate through the membrane of transwell chambers: about 65%
TNF-α
  TNF-α concentration secreted by mouse splenocyte: 60 pg/mL
[3]
  polymerization of fibrous actin: multiple dots without polymerization of fibrous actin
